In ChEMBL document CHEMBL1201862, “PubChem BioAssay data set” (2004):
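In this assay, cells in 96-well plates receive the compound at five concentrations for 48 hours. Endpoints are linearly interpolated between the surrounding concentrations. GI50 = concentration required for 50% inhibition of growth.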 The source made the active and inactive calls. No stated cut-off is given here; in the data, active = GI50 up to about 1.1 µM and inactive = higher.

What was measured:
Assay in all cases: growth of human tumour cells (NCI), 48 h
RXF 393 = tested on: RXF 393
PC-3 = tested on: PC-3
SF-268 = tested on: SF-268
SF-539 = tested on: SF-539
OVCAR-3 = tested on: OVCAR-3
RPMI-8226 = tested on: RPMI-8226
786-0 = tested on: 786-0
CAKI-1 = tested on: CAKI-1
NCI-H522 = tested on: NCI-H522
UACC-257 = tested on: UACC-257
NCI-H23 = tested on: NCI-H23
EKVX = tested on: EKVX
SK-MEL-28 = tested on: SK-MEL-28
HL-60 = tested on: HL-60
T47D = tested on: T47D
SK-MEL-2 = tested on: SK-MEL-2
MDA-MB-435 = tested on: MDA-MB-435
COLO 205 = tested on: COLO 205

SMILES | GI50 (RXF 393) | GI50 (PC-3) | GI50 (SF-268) | GI50 (SF-539) | GI50 (OVCAR-3) | GI50 (RPMI-8226) | GI50 (786-0) | GI50 (CAKI-1) | GI50 (NCI-H522) | GI50 (UACC-257) | GI50 (NCI-H23) | GI50 (EKVX) | GI50 (SK-MEL-28) | GI50 (HL-60) | GI50 (T47D) | GI50 (SK-MEL-2) | GI50 (MDA-MB-435) | GI50 (COLO 205)
CC(=O)Oc1ccc2cc(Oc3ccc(Cl)cc3)c(=O)oc2c1 | 46.9 µM (inactive) | 28.2 µM (inactive) | 53.8 µM (inactive) | 33.3 µM (inactive) | 19.2 µM (inactive) | 34.8 µM (inactive) | 36.1 µM (inactive) | 53 µM (inactive) | 22.3 µM (inactive) | 24.1 µM (inactive) | 41.4 µM (inactive) | 36.5 µM (inactive) | 41.5 µM (inactive) | 49.4 µM (inactive) | 34.1 µM (inactive) |  |  | 
Cc1cccnc1N/C=C1\C(=O)NC(=O)N(C)C1=O |  | > 100 µM (inactive) | > 100 µM (inactive) | > 100 µM (inactive) | > 100 µM (inactive) |  | > 100 µM (inactive) | > 100 µM (inactive) | 1.69 µM (inactive) | > 100 µM (inactive) | 49.7 µM (inactive) | 44 µM (inactive) | > 100 µM (inactive) | > 100 µM (inactive) | 55.7 µM (inactive) | > 100 µM (inactive) | > 100 µM (inactive) | > 100 µM (inactive)
CCCCCCCCCCCCCCCCCCOCC(O)COP(=O)(O)OCC1OC(n2ccc(N)nc2=O)C(O)C1O (stereo not given) | 12.9 µM (inactive) | 6.01 µM (inactive) | 16.9 µM (inactive) | 16.6 µM (inactive) | 43.5 µM (inactive) | 24.9 µM (inactive) | 10.9 µM (inactive) | 23.1 µM (inactive) | 13.4 µM (inactive) | 24.8 µM (inactive) | 26.1 µM (inactive) | 61.8 µM (inactive) | 57.5 µM (inactive) | 9.84 µM (inactive) | 62.5 µM (inactive) |  | 45.4 µM (inactive) | 10.9 µM (inactive)
O=C(NN1C(=O)c2ccccc2C1=O)c1ccccc1Nc1ccccc1C(=O)NN1C(=O)c2ccccc2C1=O | > 100 µM (inactive) | > 100 µM (inactive) | > 100 µM (inactive) | > 100 µM (inactive) | > 100 µM (inactive) | 49.2 µM (inactive) | > 100 µM (inactive) | > 100 µM (inactive) | > 100 µM (inactive) | > 100 µM (inactive) | > 100 µM (inactive) | > 100 µM (inactive) | > 100 µM (inactive) | > 100 µM (inactive) |  | > 100 µM (inactive) | > 100 µM (inactive) | > 100 µM (inactive)
O=C(CBr)N1CCC2(CC1)SSC1(CCN(C(=O)CBr)CC1)S2 |  | 1.84 µM (inactive) |  | 1.68 µM (inactive) |  | 0.356 µM (active) | 0.614 µM (active) |  |  | 2.76 µM (inactive) | 1.6 µM (inactive) |  | 2 µM (inactive) | 1.59 µM (inactive) |  |  | 2.12 µM (inactive) | 0.368 µM (active)
CC(=O)Nc1ccc(NC(=O)c2c(Cl)c(Cl)c(Cl)c(Cl)c2-c2nc3ccccc3[nH]2)cc1 | 29.4 µM (inactive) | 44.7 µM (inactive) | 53.5 µM (inactive) | 38.5 µM (inactive) | 48.1 µM (inactive) | 23 µM (inactive) | 49.1 µM (inactive) | 38.7 µM (inactive) | 36.7 µM (inactive) | 40.1 µM (inactive) | 32.5 µM (inactive) | 33.3 µM (inactive) | 40.2 µM (inactive) | 25.9 µM (inactive) | 25.7 µM (inactive) |  | 35.1 µM (inactive) | 17.6 µM (inactive)
Cc1cn(C2OC(CO[Si](C)(C)C(C)(C)C)/C(=C\C#N)C2O[Si](C)(C)C(C)(C)C)c(=O)[nH]c1=O (stereo not given) | 7.53 µM (inactive) | 3.83 µM (inactive) | 92.5 µM (inactive) | 6.75 µM (inactive) | 7.73 µM (inactive) | > 100 µM (inactive) | 58.1 µM (inactive) | > 100 µM (inactive) |  | 63.5 µM (inactive) | > 100 µM (inactive) |  | > 100 µM (inactive) |  | 5.3 µM (inactive) | 8.73 µM (inactive) | 56.1 µM (inactive) | 12.5 µM (inactive)
CC(=O)N1c2ccccc2C2=NN(C)C(=N)SC21 (stereo not given) |  | > 100 µM (inactive) | > 100 µM (inactive) | > 100 µM (inactive) | 13.8 µM (inactive) | > 100 µM (inactive) | > 100 µM (inactive) |  | 67.8 µM (inactive) | > 100 µM (inactive) | > 100 µM (inactive) | > 100 µM (inactive) | > 100 µM (inactive) | 89.5 µM (inactive) | 29.9 µM (inactive) | > 100 µM (inactive) | 89.3 µM (inactive) | > 100 µM (inactive)
CCCCCCc1cc2cc(C(=O)Nc3cccc(F)c3)c(=N)oc2cc1O |  | 3.21 µM (inactive) | 2.32 µM (inactive) | 3.26 µM (inactive) | 4.19 µM (inactive) | 1.62 µM (inactive) | 3.28 µM (inactive) | 2.9 µM (inactive) | 1.59 µM (inactive) | 2.99 µM (inactive) | 2.12 µM (inactive) | 2.34 µM (inactive) | 2.67 µM (inactive) | 2.36 µM (inactive) | 2.04 µM (inactive) | 2.16 µM (inactive) | 2.4 µM (inactive) | 14.6 µM (inactive)
